This is an account of results in the supplement of paper PMC10307832.

Test in all cases: relative viability (nuclei count vs DMSO), 5 days (fraction); higher = more cells survive
Compound in the experiment “Bleomycin + Linsitinib”: CC1=C(N=C(N=C1N)[C@H](CC(=O)N)NC[C@@H](C(=O)N)N)C(=O)N[C@@H]([C@H](C2=CN=CN2)OC3C(C(C(C(O3)CO)O)O)OC4C(C(C(C(O4)CO)O)OC(=O)N)O)C(=O)N[C@H](C)[C@H]([C@H](C)C(=O)N[C@@H]([C@@H](C)O)C(=O)NCCC5=NC(=CS5)C6=NC(=CS6)C(=O)NCCC[S+](C)C)O [Bleomycin] + C[C@]1(O)C[C@@H](c2nc(-c3ccc4ccc(-c5ccccc5)nc4c3)c3c(N)nccn32)C1 [Linsitinib] (partner 1 µM)
The note with it: main component drawn. The gist of the method:
(§1)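 Relative viability is defined as nuclei in treated wells over nuclei in vehicle wells. Duplicate plates were run and medians reported. Lung cancer cell lines in 1536-well plates were dosed by pin tool one day after seeding, with one drug or with a fixed anchor-drug dose plus five library-drug doses (not always all listed) in √10 steps, and nuclei were counted after 5 days.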

Compound in the experiment “Bleomycin + Olaparib”: CC1=C(N=C(N=C1N)[C@H](CC(=O)N)NC[C@@H](C(=O)N)N)C(=O)N[C@@H]([C@H](C2=CN=CN2)OC3C(C(C(C(O3)CO)O)O)OC4C(C(C(C(O4)CO)O)OC(=O)N)O)C(=O)N[C@H](C)[C@H]([C@H](C)C(=O)N[C@@H]([C@@H](C)O)C(=O)NCCC5=NC(=CS5)C6=NC(=CS6)C(=O)NCCC[S+](C)C)O [Bleomycin] + O=C(c1cc(Cc2n[nH]c(=O)c3ccccc23)ccc1F)N1CCN(C(=O)C2CC2)CC1 [Olaparib] (partner 8 µM)
The note with it: main component drawn. The gist of the method:
as §1

Compound in the experiment “Etoposide + Trametinib”: COc1cc([C@@H]2c3cc4c(cc3[C@@H](O[C@@H]3O[C@@H]5CO[C@@H](C)O[C@H]5[C@H](O)[C@H]3O)[C@H]3COC(=O)[C@H]23)OCO4)cc(OC)c1O [Etoposide] + CC(=O)Nc1cccc(-n2c(=O)n(C3CC3)c(=O)c3c(Nc4ccc(I)cc4F)n(C)c(=O)c(C)c32)c1 [Trametinib] (partner 0.02 µM)
The gist of the method:
as §1

Compound in the experiment “Etoposide + Phenformin”: COc1cc([C@@H]2c3cc4c(cc3[C@@H](O[C@@H]3O[C@@H]5CO[C@@H](C)O[C@H]5[C@H](O)[C@H]3O)[C@H]3COC(=O)[C@H]23)OCO4)cc(OC)c1O [Etoposide] + N=C(N)NC(=N)NCCc1ccccc1 [Phenformin] (partner 250 µM)
The method, boiled down: as §1

On to UMC-11, for which the relative viability with Bleomycin + Linsitinib (first compound 0.01 µM) turned out to be 0.975; with Bleomycin + Linsitinib (first compound 0.03162 µM), 0.91; with Bleomycin + Linsitinib (first compound 0.1 µM), 0.863; with Bleomycin + Linsitinib (first compound 0.3162 µM) it was 0.647; in the experiment with Bleomycin + Linsitinib (first compound 1 µM) it was 0.498; with Bleomycin + Olaparib (first compound 0.01 µM), 0.36. The relative viability is 0.342 with Bleomycin + Olaparib (first compound 0.03162 µM); 0.371 with Bleomycin + Olaparib (first compound 0.1 µM); 0.393 in the experiment with Bleomycin + Olaparib (first compound 0.3162 µM); 0.271 in the experiment with Bleomycin + Olaparib (first compound 1 µM); 0.711 with Etoposide + Trametinib (first compound 0.01 µM); 0.711 with Etoposide + Trametinib (first compound 0.03162 µM). Further, the relative viability was 0.352 with Etoposide + Trametinib (first compound 0.1 µM); 0.258 in the experiment with Etoposide + Trametinib (first compound 0.3162 µM); 0.292 with Etoposide + Trametinib (first compound 1 µM); 0.333 with Etoposide + Phenformin (first compound 0.01 µM); 0.341 in the experiment with Etoposide + Phenformin (first compound 0.03162 µM); 0.275 with Etoposide + Phenformin (first compound 0.1 µM). Also, the results for the relative viability with Etoposide + Phenformin (first compound 0.3162 µM) and with Etoposide + Phenformin (first compound 1 µM) were 0.233 and 0.207, respectively.
